Data set [1] deals with influenza A/WSN/33 virus. Kind of data set: microbe, parasite or virus in culture. It is filed as cell-based, influenza A virus (H1N1). The note with it: for IC50: Influenza A virus, H1N1|WSN, A549, 24 h.
Data set [2] deals with influenza A/WSN/33 virus. Kind of data set: microbe, parasite or virus in culture. It is filed as cell-based, influenza A virus (H1N1). Particulars: MDCK.
Data set [3] has as its system A/California/04/2009 (H1N1). Kind of data set: microbe, parasite or virus in culture. It is filed as cell-based, influenza A virus. The note with it: for IC50: Influenza A virus, H1N1, A549.
Data set [4] deals with A/Puerto Rico/8/1934 (H1N1). Kind of data set: microbe, parasite or virus in culture. The note with it: for IC50: Influenza A virus, H1N1, A549, 24 h. It is filed as cell-based, influenza A virus.
For data set [5], the system named is A/Brisbane/59/2007-S (oseltamivir sensitive). Description: microbe, parasite or virus in culture. It is filed as cell-based. Particulars: Influenza A virus, H1N1, A549, 24 h.
Data set [6] deals with A/Panama/2007/1999 (H3N2). Description: microbe, parasite or virus in culture. It is filed as cell-based, influenza A virus. Particulars: for IC50: Influenza A virus, H3N2, A549.
Data set [7] has as its system A/Wyoming/03/2003 (H3N2). Description: microbe, parasite or virus in culture. It is filed as cell-based. Particulars: Influenza A virus, H3N2, A549, 24 h.
Data set [8] deals with A/Vietnam/1203/2004 (H5N1). Description: microbe, parasite or virus in culture. It is filed as cell-based, influenza A virus. Particulars: for IC50: Influenza A virus, H5N1, A549.
For data set [9], the system named is B/Yamagata/16/1988. Description: microbe, parasite or virus in culture. Format: cell-based. Particulars: Influenza B virus, MDCK.
Data set [10] concerns B/Brisbane/60/2008. Description: microbe, parasite or virus in culture. It is filed as cell-based. The note with it: Influenza B virus, MDCK, 24 h.
Data set [11] has as its system A/Puerto Rico/8/1934 (H1N1) virus expressing GFP. Description: microbe, parasite or virus in culture. Format: cell-based, influenza A virus. Particulars: for IC50: Influenza A virus, H1N1, read-out: PRS IC50.
The subject of data set [12] is A/Vietnam/1203/2004 (H5N1-Halo) GFP virus. Description: microbe, parasite or virus in culture. It is filed as cell-based, influenza A virus. Particulars: for IC50: Influenza A virus, H5N1, read-out: H5N1 IC50.
Data set [13] has as its system influenza A/WSN/33 virus. Format: cell-based.
For data set [14], the system named is purified recombinant wild-type WSN NP protein. It is filed as biochemical, influenza A/WSN/33 virus.
The subject of data set [15] is NP (A/WSN/33 infected A549 cells). Format: cell-based, influenza A virus.
The test system is the same in data set [16]. It is filed as cell-based, influenza A virus. The source holds these as a separate data set.
Data set [17] concerns viral mRNA, vRNA and protein expression, A/WSN/33. It is filed as cell-based, influenza A virus.
In data set [18] the test system is viral mRNA, vRNA and protein expression, rY40F-WSN virus. It is filed as cell-based, influenza A virus.
Data set [19] deals with A549 cells.
Data set [20] concerns PR8-GFP virus. Format: cell-based, influenza A virus.
Data set [21] concerns vesicular stomatitis virus (VSV). It is filed as cell-based.
Data set [22] can be described thus: in vitro. Particulars: human.
A short description of data set [23]: in vitro. The note with it: dog.

Structures are written as SMILES. Values joined by “and” are separate entries in the source; they are usually repeats but may differ in a detail not shown here. Equal entries are not always repeated. “Also recorded” adds a separate entry of the source.

The record followed here is paper PMC6145453 (ACS infectious diseases, 2018).

For orientation: IC50 means the midpoint of a concentration-inhibition curve. On to `CC(C)(C)c1ccc(C(=O)Nc2ccc(NC(=O)c3ccc(C(C)(C)C)cc3)cc2)cc1` [S119, N,N′-(1,4-Phenylene)bis(4-(tert-butyl)benzamide)], for which, in data set [1], the “reduction in WSN viral titers” value amounted to 4 log and the IC50 amounted to 0.02 µM. Also, in data set [2], the IC50 stood at 0.06 µM. Also, in [3], the “reduction in infectious titer” value came to 77% and the midpoint of inhibition, the IC50, lay at 27.4 µM. In addition, in [4], the “activity against strain” value was “ineffective” and the IC50 was greater than 50 µM. In data set [5], this compound gave an IC50 greater than 50 µM. For the same compound, in data set [6], the “activity against strain” value is on record as “ineffective” and the IC50 is greater than 50 µM. Further, the IC50 in data set [7] was greater than 50 µM. In [8], the “activity against strain” value is recorded as “ineffective” and the IC50 was greater than 50 µM. Moreover, the IC50 in data set [9] was greater than 50 µM. In data set [10], this compound showed an IC50 greater than 50 µM. In [11], the “antiviral activity on screened strain” value is reported as “no detectable antiviral activity” and the IC50 was greater than 50 µM. For the same compound, in data set [12], the “antiviral activity on screened strain” value was “no detectable antiviral activity” and the IC50 is greater than 50 µM. For the same compound, in [13], the “effect on viral titer when added at 6 h after infection” value was 1 log; the “virus inhibition when added 4 h after infection” value is recorded as “significant virus inhibition”; the “virus inhibition when added before infection and up to 2 h after infection” value is reported as “maximally inhibit”. In data set [14], the “effect on NP oligomer ladder / low molecular weight band” value is “low molecular weight band is completely lost” and the “effect on low molecular weight NP band” value is “low molecular weight NP band is lost”. Besides, in data set [15], the “effect on NP oligomer size” value is “shift to smaller oligomers” and the “effect on low molecular weight NP pool” value is reported as “distinct loss”. Further, in data set [16], the NP localization result was “NP translocation to the nucleus was delayed” and the “time of appearance of NP aggregates” value is reported as “not until the 24 h post-infection time point”. Moreover, in data set [17], the NP protein levels entry is given as “moderately reduced”, the NS1 protein expression result is recorded as “unaffected”, the “mRNA expression from the NP segment” value is “severely reduced” and the “mRNA expression from the NS segment” value is “slightly reduced”. Moreover, in [17], the “mRNA expression from the PB2 segment” value is “reduced to undetectable levels” and the “vRNA from any segment” value is listed as “could not be detected”. Moreover, the “inhibition of transcription and replication of rY40F-WSN virus” value in data set [18] is recorded as “completely resistant”. Also, the “Cytotoxicity” value in [19] (A549 cells, concentrations as high as 500 μM) is “very little toxicity”.

As to `CC(C)(C)c1ccc(NC(=O)c2ccc(C(C)(C)C)cc2)cc1` [S119-2, 4-(tert-butyl)-N-(4-(tert-butyl)phenyl)benzamide], the IC50 came to 13.9 µM in [11] and 44.5 µM in data set [12].

As for `CC(C)(C)c1ccc(C(=O)Nc2ccc(Oc3ccccc3)cc2)cc1` [S119-3, 4-(tert-butyl)-N-(4-phenoxyphenyl)benzamide], the results for the 50% inhibitory concentration (IC50) in data set [11] and in [12] were 11.4 µM and 17.4 µM, respectively.

Turning to `CC(C)(C)c1ccc(C(=O)Nc2cccc(NC(=O)c3ccc(C(C)(C)C)cc3)c2)cc1` [S119-6, N,N′-(1,3-phenylene)bis(4-(tert-butyl)benzamide)], the IC50 in data set [11] and in data set [12] was greater than 50 µM in each case.

Turning to `CC(C)(C)c1ccc(C(=O)Nc2ccc(Nc3ccccc3)cc2)cc1` [S119-8, 4-(tert-butyl)-N-(4-(phenylamino)-phenyl)benzamide], the 50% inhibitory concentration (IC50) in data set [1] is 1.43 µM; in data set [3], 5.32 µM; in [4], 6.05 µM; in data set [5] it was 6.68 µM; in data set [6], 6.43 µM; in data set [7], 11.5 µM. The IC50 in data set [8] was 7.94 µM; in data set [9], 2.08 µM; in [10] it was 15.2 µM; in data set [11], 6.05 µM; in [12] it was 8.42 µM. Besides, the combination index in [20] is 0.79 and 0.57. In addition, the “type of interaction” value in [20] was “synergistic; also recorded: additive to slightly synergistic”. In [21], the “inhibition of VSV” value was “did not inhibit; also recorded: does not inhibit”. Besides, the CC50 in [19] (human) is 40.7 µM; in [22] (CC50) it was greater than 50 µM; in data set [22] (CC50 (50% cytotoxic concentration)) it was 66.1 µM; in data set [23], greater than 50 µM.

As for `Cc1onc(-c2ccccc2)c1C(=O)N1CCN(c2ccc([N+](=O)[O-])cc2Cl)CC1` [nucleozin, reference compound], in data set [14], the “effect on NP oligomer ladder / low molecular weight band” value is recorded as “oligomer ladder becomes a smear” and the “effect on low molecular weight NP band” value was “low molecular weight NP band is lost”. For the same compound, in data set [15], the “effect on NP oligomer size” value is reported as “shift to smaller oligomers” and the “effect on low molecular weight NP pool” value is listed as “distinct loss”. In data set [16], the NP localization entry is on record as “NP remains exclusively in the cytoplasm” and the “time of appearance of NP aggregates” value is on record as “visible aggregates by 4 h post-infection”. The “mRNA, vRNA and viral protein expression from PB2, NP and NS segments” value in data set [17] is recorded as “complete loss”. In addition, in data set [18], the “inhibition of transcription and replication of rY40F-WSN virus” value is listed as “efficient inhibition”.
